SMILES strings stand for the structures. Converted amounts (≈) assume the structure as drawn. Where a name gives a salt, the structure may show the parent alone.

This note sets out measurements from patent publication EP0158299A2, “Substituted phenylethyl derivatives, process for their preparation and pharmaceutical agents” (Merz & Co. GmbH & Co., priority 1984, dated 1985).

Holding throughout (format): cell-based
Assay [1] relates to A.c. In words: serial dilution test, fungistatic activity (MIC). The conditions noted are these: Pilzspezies A.c.; read-out: Minimale Hemmkonzentrationen. From the text: (§1) Die erfindungemäßen Verbindungen wurden im Reihenverdünnungstest auf ihre fungistatische Wirksamkeit gegen verschiedene Pilzspezies und gegen verschiedene Bakterienstämme geprüft. Die so ermittelten minimalen Hemmkonzentrationen (MHK) sind in den folgenden Tabellen wiedergegeben: […]

In assay [2] the test system is A.f. In words: serial dilution test, fungistatic activity (MIC). The settings on record: Pilzspezies A.f.; read-out: Minimale Hemmkonzentrationen.
From the text: as §1

For assay [3], the system named is M.c. In words: serial dilution test, fungistatic activity (MIC). The settings on record: Pilzspezies M.c.; read-out: Minimale Hemmkonzentrationen.
From the text: as §1

Assay [4] has as its system C.t. In words: serial dilution test, fungistatic activity (MIC). The conditions noted are these: Pilzspezies C.t.; read-out: Minimale Hemmkonzentrationen.
From the text: as §1

For assay [5], the system named is C.a. In words: serial dilution test, fungistatic activity (MIC). The settings on record: Pilzspezies C.a.; read-out: Minimale Hemmkonzentrationen.
From the text: as §1

Assay [6] concerns T.m. In words: serial dilution test, fungistatic activity (MIC). The conditions noted are these: Pilzspezies T.m.; read-out: Minimale Hemmkonzentrationen.
From the text: as §1

The test system of assay [7] is T.r. In words: serial dilution test, fungistatic activity (MIC). The settings on record: Pilzspezies T.r.; read-out: Minimale Hemmkonzentrationen.
From the text: as §1

The test system of assay [8] is Streptococcus faecalis. In words: serial dilution test against bacterial strains (MIC). The settings on record: Enterococcus faecalis; Bakterienstämme S.f. = Streptococcus faecalis; read-out: Minimale Hemmkonzentrationen.
From the text: as §1

Assay [9] relates to Streptococcus pyogenes. The assay is described as above. The settings on record: Bakterienstämme S.p. = Streptococcus pyogenes; read-out: Minimale Hemmkonzentrationen.
From the text: as §1

Assay [10] concerns Staphylococcus aureus. The assay is described as above. The settings on record: Bakterienstämme S.a. = Staphylococcus aureus; read-out: Minimale Hemmkonzentrationen.
From the text: as §1

Assay [11] relates to S.s. In words: serial dilution test, fungistatic activity (MIC). The settings on record: Pilzspezies S.s.; read-out: Minimale Hemmkonzentrationen.
From the text: as §1

For `FC(F)(Oc1ccc(CON=C(Cn2ccnc2)c2ccc(Cl)cc2Cl)cc1)C(Cl)Cl` [Verbind. I, 1-(2,4-Dichlorphenyl)-2-(1H-imidazol-1-yl)-0-(4-(2,2-dichlor-1,1-difluorethoxy)benzyl)ethanonoxim-nitrat], the MIC in assay [1] was found to be 1.6 µg/mL (≈ 3.14 µM); in assay [2], 12.5 µg/mL (≈ 24.5 µM); in assay [3] it was 3.1 µg/mL (≈ 6.09 µM); in assay [4], 0.8 µg/mL (≈ 1.57 µM); in assay [5], 0.1 µg/mL (≈ 0.196 µM); in assay [6], 6.25 µg/mL (≈ 12.3 µM). Moreover, the MIC came out at 6.25 µg/mL (≈ 12.3 µM) in [7], 12.5 µg/mL (≈ 24.5 µM) in assay [8], 0.8 µg/mL (≈ 1.57 µM) in assay [9] and 6.25 µg/mL (≈ 12.3 µM) in assay [10].
On to `Clc1ccc(C(Cn2ccnc2)OCc2ccc(C3CC3(Cl)Cl)cc2)c(Cl)c1` (stereo not shown) [Verbind. III, 1-(2,4-Dichlorphenyl)-1-(4-(2,2-dichlorcyclopropyl)benzyloxy)-2-(1H-imidazol-1-yl)ethan-nitrat], for which the MIC in assay [11] was determined as 0.2 µg/mL (≈ 0.438 µM); in assay [2], 1.6 µg/mL (≈ 3.51 µM); in assay [4], 3.1 µg/mL (≈ 6.8 µM); in assay [5], 0.05 µg/mL (≈ 0.11 µM); in assay [6], 0.8 µg/mL (≈ 1.75 µM); in assay [7], 0.8 µg/mL (≈ 1.75 µM).
With `FC(F)(Oc1ccc(COC(Cn2ccnc2)c2ccc(Cl)cc2Cl)cc1)C(Cl)Cl` (stereo not shown) [Verbind. IV, 1-(2,4-Dichlorphenyl)-1-(4-(2,2-dichlor-1,1-difluor-ethoxy)benzyloxy)-2-(1H-imidazol-1-yl)ethan-hydrochlorid], the MIC came to 3.1 µg/mL in assay [2]; 0.1 µg/mL in assay [4]; 0.1 µg/mL in assay [5]; 0.1 µg/mL in assay [6]; 0.1 µg/mL in assay [7]; 1.6 µg/mL in assay [8]. Moreover, the MIC in assay [9] is less than 0.2 µg/mL; in assay [10], 3.1 µg/mL.
In the case of `FC(Cl)C(F)(F)Oc1ccc(COC(Cn2ccnc2)c2ccc(Cl)cc2Cl)cc1` (stereo not shown) [Verbind. VI, 1-(2,4-Dichlorphenyl)-1-(4-(2-chlor-1,1,2-trifluorethoxy)benzyloxy)-2-(1H-imidazol-1-yl)ethan-nitrat], the MIC in [11] turned out to be 0.1 µg/mL (≈ 0.208 µM); in assay [2] it was 1.6 µg/mL (≈ 3.34 µM); in assay [3], 0.2 µg/mL (≈ 0.417 µM); in [4] it was 1.6 µg/mL (≈ 3.34 µM); in assay [5], 0.05 µg/mL (≈ 0.104 µM); in assay [6], 0.8 µg/mL (≈ 1.67 µM). In assay [7], the MIC is 0.8 µg/mL (≈ 1.67 µM).
On to `Clc1ccc(C(Cn2ccnc2)=NOCc2ccc(C3CC3(Cl)Cl)cc2)c(Cl)c1` (stereo not shown) [Verbind. II, 1-(2,4-Dichlorphenyl)-2-(1H-imidazol-1-yl)-0-(4-(2,2-di-chlorcyclopropyl)benzyl)ethanonoxim-nitrat], for which the MIC was 1.6 µg/mL (≈ 3.41 µM) in [11]; 25 µg/mL (≈ 53.3 µM) in assay [2]; 25 µg/mL (≈ 53.3 µM) in assay [4]; 3.1 µg/mL (≈ 6.61 µM) in [5]; 12.5 µg/mL (≈ 26.6 µM) in assay [6]; 6.2 µg/mL (≈ 13.2 µM) in assay [7].
